“And” between values parts separate entries of the source, which are not always exact repeats. Identical values can stand only once. Inconclusive results and toxic doses are left out. Cut-off read from the data, not from the text of the source: active = T/C of 150% or more; inactive = T/C below 125%.
System: L1210 leukemia ip in BDF1 mice, survival T/C
Experiment: NCI In Vivo Anticancer Drug Screen. Data for tumor model L1210 Leukemia (intraperitoneal) in B6D2F1 (BDF1) mice
Details: endpoint: mean survival time, higher = longer survival
In short: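 Ratio derived from survival: compound-dosed mice over vehicle-dosed mice, all bearing a transplantable tumor.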

[1] = dose: 100.0 mg/kg/injection, schedule: Q01DX001 (ip), vehicle: carboxymethylcellulose (CMC)
[2] = dose: 100.0 mg/kg/injection, schedule: Q04DX003 (ip), vehicle: Klucel (hydroxypropylcellulose) (HPC)
[3] = dose: 200.0 mg/kg/injection, schedule: Q01DX001 (ip), vehicle: carboxymethylcellulose (CMC)
[4] = dose: 200.0 mg/kg/injection, schedule: Q04DX003 (ip), vehicle: Klucel (hydroxypropylcellulose) (HPC)
[5] = dose: 400.0 mg/kg/injection, schedule: Q01DX001 (ip), vehicle: carboxymethylcellulose (CMC)
[6] = dose: 100.0 mg/kg/injection, schedule: Q04DX003 (ip), vehicle: saline with Tween-80
[7] = dose: 200.0 mg/kg/injection, schedule: Q04DX003 (ip), vehicle: saline with Tween-80
[8] = dose: 400.0 mg/kg/injection, schedule: Q04DX003 (ip), vehicle: saline with Tween-80

Measured: T/C

CC(C)c1ccc(C(=O)Nc2ccc(OCCCc3c(N)nc(N)nc3N)cc2)cc1S(=O)(=O)F
inactive: dose: 100.0 mg/kg/injection, schedule: Q01DX001 (ip), vehicle: Klucel (hydroxypropylcellulose) (HPC) 93 % of control | dose: 200.0 mg/kg/injection, schedule: Q01DX001 (ip), vehicle: Klucel (hydroxypropylcellulose) (HPC) 98 % of control | dose: 400.0 mg/kg/injection, schedule: Q01DX001 (ip), vehicle: Klucel (hydroxypropylcellulose) (HPC) 96 % of control

C#CCOc1ccccc1O
inactive: dose: 100.0 mg/kg/injection, schedule: Q01DX009 (ip), vehicle: acetone 94 % of control and 91 % of control | dose: 200.0 mg/kg/injection, schedule: Q01DX009 (ip), vehicle: acetone 94 % of control | dose: 400.0 mg/kg/injection, schedule: Q01DX009 (ip), vehicle: acetone 100 % of control and 92 % of control

COc1cc2c(cc1OC)C(CCN1C(=O)c3ccccc3C1=O)=NCC2
inactive: dose: 25.0 mg/kg/injection, schedule: Q01DX009 (ip), vehicle: saline 97 % of control | dose: 50.0 mg/kg/injection, schedule: Q01DX009 (ip), vehicle: saline 101 % of control | dose: 100.0 mg/kg/injection, schedule: Q04DX003 (ip), vehicle: saline 97 % of control

CCCn1c(=O)cc(/C=N/Nc2ccc([N+](=O)[O-])cc2[N+](=O)[O-])c2ccccc21
inactive: dose: 100.0 mg/kg/injection, schedule: Q01DX001 (ip), vehicle: saline with Tween-80 90 % of control | dose: 200.0 mg/kg/injection, schedule: Q01DX001 (ip), vehicle: saline with Tween-80 90 % of control | dose: 400.0 mg/kg/injection, schedule: Q01DX001 (ip), vehicle: saline with Tween-80 90 % of control

ClC(Cl)=[C](Cl)[Hg][C](Cl)=C(Cl)Cl
inactive: dose: 0.39 mg/kg/injection, schedule: Q01DX009 (ip), vehicle: saline with Tween-80 96 % of control | dose: 0.78 mg/kg/injection, schedule: Q01DX009 (ip), vehicle: saline with Tween-80 97 % of control | dose: 1.56 mg/kg/injection, schedule: Q01DX009 (ip), vehicle: saline with Tween-80 93 % of control and 86 % of control

CCCC(N)C(O)c1ccccc1 (stereo not given)
inactive: dose: 75.0 mg/kg/injection, schedule: Q01DX001 (ip), vehicle: saline 102 % of control | dose: 150.0 mg/kg/injection, schedule: Q01DX001 (ip), vehicle: saline 100 % of control

O=C(O)C1(Br)c2ccccc2-c2ccccc21
inactive: dose: 50.0 mg/kg/injection, schedule: Q01DX001 (ip), vehicle: carboxymethylcellulose (CMC) 100 % of control | dose: 50.0 mg/kg/injection, schedule: Q04DX003 (ip), vehicle: Klucel (hydroxypropylcellulose) (HPC) 100 % of control | [1] 100 % of control | [2] 94 % of control | [3] 96 % of control | [4] 96 % of control | [5] 105 % of control

CCCCC(N)P(=O)(O)O (stereo not given)
inactive: dose: 25.0 mg/kg/injection, schedule: Q04DX002 (ip), vehicle: saline 110 % of control | dose: 50.0 mg/kg/injection, schedule: Q04DX002 (ip), vehicle: saline 105 % of control | dose: 100.0 mg/kg/injection, schedule: Q04DX002 (ip), vehicle: saline 95 % of control

Nc1nc2nc3c(nc2c(=O)[nH]1)C(=O)N(c1ccc(C(=O)O)cc1)C3
inactive: dose: 100.0 mg/kg/injection, schedule: Q01DX001 (ip), vehicle: saline 103 % of control | dose: 200.0 mg/kg/injection, schedule: Q01DX001 (ip), vehicle: saline 103 % of control

CC(C)N(CCSC(=O)N1c2ccccc2Sc2cccnc21)C(C)C
inactive: dose: 5.0 mg/kg/injection, schedule: Q04DX003 (ip), vehicle: Klucel (hydroxypropylcellulose) (HPC) 90 % of control | dose: 10.0 mg/kg/injection, schedule: Q04DX003 (ip), vehicle: Klucel (hydroxypropylcellulose) (HPC) 110 % of control

Clc1ccc(OCc2sc3ccc(Cl)cc3c2CN2CCCCC2)cc1
inactive: dose: 25.0 mg/kg/injection, schedule: Q04DX003 (ip), vehicle: saline with Tween-80 88 % of control | dose: 50.0 mg/kg/injection, schedule: Q04DX003 (ip), vehicle: saline with Tween-80 87 % of control | [6] 90 % of control and 92 % of control

CCCCOP(=O)(/C=C/c1ccc([N+](=O)[O-])cc1)OCCCC
inactive: dose: 100.0 mg/kg/injection, schedule: Q04DX002 (ip), vehicle: Klucel (hydroxypropylcellulose) (HPC) 97 % of control | dose: 200.0 mg/kg/injection, schedule: Q04DX002 (ip), vehicle: Klucel (hydroxypropylcellulose) (HPC) 93 % of control | dose: 400.0 mg/kg/injection, schedule: Q04DX002 (ip), vehicle: Klucel (hydroxypropylcellulose) (HPC) 108 % of control

N#Cc1c(C#N)c(/N=C/c2ccccc2)n(/N=C/c2ccccc2)c1N
inactive: dose: 87.5 mg/kg/injection, schedule: Q04DX003 (ip), vehicle: other 91 % of control | dose: 175.0 mg/kg/injection, schedule: Q04DX003 (ip), vehicle: other 93 % of control | dose: 350.0 mg/kg/injection, schedule: Q04DX003 (ip), vehicle: other 95 % of control

CC(C)OC(=S)SCC(=O)O
inactive: [6] 97 % of control | [7] 93 % of control | [8] 93 % of control

Brc1cccc[n+]1CCCC[n+]1ccccc1Br
inactive: dose: 2.2 mg/kg/injection, schedule: Q01DX Z (ip), vehicle: saline 96 % of control | dose: 3.3 mg/kg/injection, schedule: Q01DX Z (ip), vehicle: saline 100 % of control | dose: 5.0 mg/kg/injection, schedule: Q01DX Z (ip), vehicle: saline 87 % of control | dose: 10.0 mg/kg/injection, schedule: Q01DX001 (ip), vehicle: saline 96 % of control | dose: 20.0 mg/kg/injection, schedule: Q01DX001 (ip), vehicle: saline 93 % of control

CC(C)c1ccc(C(c2c(O)c3ccccc3oc2=O)c2c(O)c3ccccc3oc2=O)cc1
inactive: dose: 100.0 mg/kg/injection, schedule: Q01DX009 (ip), vehicle: Klucel (hydroxypropylcellulose) (HPC) 90 % of control | [2] 106 % of control | dose: 200.0 mg/kg/injection, schedule: Q01DX009 (ip), vehicle: Klucel (hydroxypropylcellulose) (HPC) 103 % of control | [4] 100 % of control | dose: 400.0 mg/kg/injection, schedule: Q04DX003 (ip), vehicle: Klucel (hydroxypropylcellulose) (HPC) 105 % of control

Cn1c(N)c(N=Nc2ccc(S(=O)(=O)Nc3nccs3)cc2)c(=O)n(C)c1=O
inactive: [1] 102 % of control | [3] 96 % of control | [5] 90 % of control

CCN(CC)c1ccc(NC(=O)Nc2ccccc2C)cc1
inactive: dose: 100.0 mg/kg/injection, schedule: Q01DX009 (ip), vehicle: saline with Tween-80 93 % of control | [6] 100 % of control | dose: 200.0 mg/kg/injection, schedule: Q01DX009 (ip), vehicle: saline with Tween-80 90 % of control | [7] 94 % of control | dose: 400.0 mg/kg/injection, schedule: Q01DX009 (ip), vehicle: saline with Tween-80 94 % of control | [8] 94 % of control

Cc1ccc2c(c1)CN(C13CC4CC(CC(C4)C1)C3)CO2
inactive: dose: 100.0 mg/kg/injection, schedule: Q04DX003 (ip), vehicle: saline sonified 91 % of control | dose: 200.0 mg/kg/injection, schedule: Q04DX003 (ip), vehicle: saline sonified 102 % of control | dose: 400.0 mg/kg/injection, schedule: Q04DX003 (ip), vehicle: saline sonified 93 % of control

Reference: PubChem BioAssay AID248 (DTP/NCI, 2004)
